This is an account of results in US11542240B2, “STK19 inhibitors for treatment of cancer” (TRUSTEES OF BOSTON UNIVERSITY, priority 2018, dated 2023).

In one experiment the target is STK19 (Homo sapiens (Human), UniProt P49842). In words: STK19 kinase inhibitory activity, ADP-Glo kinase assay with NRAS substrate. The experiment is classed as biochemical.
For another experiment, the system named is SK-MEL-2 cells. Format: cell-based, human. The conditions noted are these: SK-MEL-2, G9a inhibition by A-366. The text has this: (§1) In addition, the inventors investigated the growth inhibitory effects of IV in melanoma cells with different NRAS and BRAF status, including A375 and UACC62 (NRASWT, BRAFV600E), and SK-MEL-2 and WM2032 (NRASQ61R, BRAFWT).
(§2) To further confirm the pharmacological effects of IV derive from STK19 inhibition and not G9a inhibition, the inventors investigated the role of G9a in NRAS signaling activation. G9a was silenced by G9a-specific shRNA or inhibited by a specific inhibitor, A-366, in SK-MEL-2 and WM2032 melanoma cells. […] In summary, ZT-12-037-01 (IV) is a specific STK19-targeted inhibitor to block oncogenic NRAS-driven melanocyte malignant transformation and melanoma growth.

The subject of another experiment is WM2032 cells. The experiment is classed as cell-based, human. The following applies: WM2032, G9a inhibition by A-366.
Description: as §1, §2

Sequence of STK19 (P49842 other isoform, or with tags, fused parts or gaps): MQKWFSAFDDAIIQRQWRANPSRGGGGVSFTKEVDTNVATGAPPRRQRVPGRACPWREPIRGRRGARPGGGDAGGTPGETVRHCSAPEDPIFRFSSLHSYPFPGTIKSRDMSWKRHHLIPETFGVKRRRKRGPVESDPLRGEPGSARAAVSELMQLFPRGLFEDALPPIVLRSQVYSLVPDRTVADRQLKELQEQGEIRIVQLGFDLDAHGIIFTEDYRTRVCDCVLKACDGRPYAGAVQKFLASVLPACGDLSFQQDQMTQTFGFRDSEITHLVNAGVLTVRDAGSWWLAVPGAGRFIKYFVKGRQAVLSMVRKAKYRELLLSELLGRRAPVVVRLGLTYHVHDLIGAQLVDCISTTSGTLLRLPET

Take `COc1cc2c(cc1OCCCN1CCCC1)N=C(N)C21CCC1` [Formula A-366, reference compound]: the “inhibitory potential toward STK19” value against STK19 (in vitro kinase assay) is given as “little inhibitory potential”. For the same compound, the H3K9 methylation levels entry in the experiment on SK-MEL-2 cells and with WM2032 cells was “markedly repressed” in each case.
Consider `COc1cc2nc(N3CCOCC3)nc(NC3CCN(C(C)C)CC3)c2cc1OC` [Formula XXI], for which the inhibition at 10 µM on STK19 was determined as 59%.
